Measurements taken from patent US11780826B2 (Amgen Inc., priority 2017, dated 2023).

System: Bovine cardiac myofibrils
Experiment: In vitro model of dose-dependent myofibril ATPase modulation (AC1.4, pyruvate kinase/lactate dehydrogenase-coupled ATPase assay at pCa25)
Assay type: biochemical
Settings: concentration at which ATPase activity was 1.4-fold higher than the bottom of the dose curve, mean of a minimum of two independent tests
Procedure, shortened: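 ATP turnover tracked as NADH absorbance loss at 340 nm, coupled via pyruvate kinase/lactate dehydrogenase, with 1 mM ATP, 2 mM MgCl2 and 12 mM K-PIPES at pH 6.80 (22° C) under EGTA/CaCl2 calcium buffering. Substrate was detergent-treated bovine cardiac myofibrils; 4-parameter curve fit, AC1.4 averaged over at least two runs.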

CC(NC(=O)[C@@H](C)N(C)C(=O)c1cccc(S(=O)(=O)N2CC(C#N)C2)c1)c1ccc(Cl)cc1 (stereo partly drawn) [Example 298, N-((2R)-1-((1-(4-chlorophenyl)ethyl)amino)-1-oxopropan-2-yl)-3-((3-cyanoazetidin-1-yl)sulfonyl)-N-methylbenzamide]
AC1.4: 0.7905 µM

CS(=O)(=O)c1cc(C(=O)N2CCC[C@@H]2C(=O)NC(c2ccc(C(F)(F)F)cc2F)C2CC2)ccn1 (stereo partly drawn) [Example 761, (2R)-N-(cyclopropyl(2-fluoro-4-(trifluoromethyl)phenyl)methyl)-1-(2-(methylsulfonyl)isonicotinoyl)pyrrolidine-2-carboxamide]
AC1.4: 7.696 µM

N#CC1CN(S(=O)(=O)N2CCC[C@H](C(=O)N3CCC[C@@H]3C(=O)NCc3ccc(C(F)(F)F)c(F)c3)C2)C1 [Example 32, 1-(((3S)-1-((3-cyano-1-azetidinyl)sulfonyl)-3-piperidinyl)carbonyl)-N-(3-fluoro-4-(trifluoromethyl)benzyl)-D-prolinamide]
AC1.4: 0.0335 µM

N#CC1CN(S(=O)(=O)c2cccc(C(=O)N3C[C@@H](O)C[C@@H]3C(=O)NCc3ccc(C(F)(F)F)cc3)c2)C1 [Example 251, (4S)-1-((3-((3-cyano-1-azetidinyl)sulfonyl)phenyl)carbonyl)-4-hydroxy-N-(4-(trifluoromethyl)benzyl)-D-prolinamide]
AC1.4: 0.6055 µM

CS(=O)(=O)c1cccc(C(=O)N2[C@@H](C(=O)N[C@@H]3CCc4cc(Cl)ccc43)C[C@H]3C[C@H]32)c1 [Example 753, (1R,3R,5R)-N-((1R)-5-chloro-2,3-dihydro-1H-inden-1-yl)-2-(3-(methylsulfonyl)benzoyl)-2-azabicyclo[3.1.0]hexane-3-carboxamide]
AC1.4: 7.42 µM

CS(=O)(=O)c1cc(C(=O)N2CCC[C@@H]2C(=O)N[C@@H](c2ccc(C(F)(F)F)cc2F)C2CC2)ccn1 [Example 675, N-((R)-cyclopropyl(2-fluoro-4-(trifluoromethyl)phenyl)methyl)-1-((2-(methylsulfonyl)-4-pyridinyl)carbonyl)-D-prolinamide]
AC1.4: 4.9395 µM

O=C(N[C@@H](c1cc(F)c(C(F)(F)F)cc1F)C1CC1)[C@H]1C[C@H]2C[C@H]2N1C(=O)c1cc(Cl)cc2cn[nH]c12 [Example 821, (1R,3R,5R)-2-(5-chloro-1H-indazole-7-carbonyl)-N-((R)-cyclopropyl(2,5-difluoro-4-(trifluoromethyl)phenyl)methyl)-2-azabicyclo[3.1.0]hexane-3-carboxamide]
AC1.4: 1.2142 µM

CS(=O)(=O)c1cccc(C(=O)N2CCCC[C@@H]2C(=O)N[C@@H](c2ccc(C(F)(F)F)c(F)c2)C2CC2)c1 [Example 300, (2R)-N-((R)-cyclopropyl(3-fluoro-4-(trifluoromethyl)phenyl)methyl)-1-(3-(methylsulfonyl)benzoyl)-2-piperidinecarboxamide]
AC1.4: 0.7928 µM

CCNc1ccc(S(C)(=O)=O)cc1C(=O)N1[C@@H](C(=O)N[C@@H](c2ccc(C(F)(F)F)cc2F)C2CC2)C[C@H]2C[C@H]21 [Example 50, (1R,3R,5R)-N-((R)-cyclopropyl(2-fluoro-4-(trifluoromethyl)phenyl)methyl)-2-(2-(ethylamino)-5-(methylsulfonyl)benzoyl)-2-azabicyclo[3.1.0]hexane-3-carboxamide]
AC1.4: 0.0546 µM

O=C(NCc1ccc(C(F)(F)F)cc1)[C@H]1CCCN1C(=O)c1cccc(S(=O)(=O)N2CC3(CC3)C2)c1 [Example 350, 1-((3-(5-azaspiro[2.3]hex-5-ylsulfonyl)phenyl)carbonyl)-N-(4-(trifluoromethyl)benzyl)-D-prolinamide]
AC1.4: 1.0349 µM

CS(=O)(=O)c1cncc(C(=O)N2[C@@H](C(=O)N[C@@H](c3ccc(C(F)(F)F)c(F)c3)C3CC3)C[C@H]3C[C@H]32)c1 [Example 548, (1R,3R,5R)-N-((R)-cyclopropyl(3-fluoro-4-(trifluoromethyl)phenyl)methyl)-2-((5-(methylsulfonyl)-3-pyridinyl)carbonyl)-2-azabicyclo[3.1.0]hexane-3-carboxamide]
AC1.4: 2.66 µM

COC1CN(S(=O)(=O)N2CCC[C@H](C(=O)N3CCC[C@@H]3C(=O)NCc3ccc(C(F)(F)F)cc3)C2)C1 [Example 492, 1-(((3S)-1-((3-methoxy-1-azetidinyl)sulfonyl)-3-piperidinyl)carbonyl)-N-(4-(trifluoromethyl)benzyl)-D-prolinamide]
AC1.4: 2.256 µM

N#CC1CN(S(=O)(=O)N2CCC[C@H](C(=O)N3CCC[C@@H]3C(=O)NCc3cc(Cl)cc(Cl)c3)C2)C1 [Example 390, 1-(((3S)-1-((3-cyano-1-azetidinyl)sulfonyl)-3-piperidinyl)carbonyl)-N-(3,5-dichlorobenzyl)-D-prolinamide]
AC1.4: 1.3495 µM

N#CC1CN(S(=O)(=O)N2CCC[C@H](C(=O)N3CCC[C@@H]3C(=O)NCc3cccc(F)c3F)C2)C1 [Example 516, 1-(((3S)-1-((3-cyano-1-azetidinyl)sulfonyl)-3-piperidinyl)carbonyl)-N-(2,3-difluorobenzyl)-D-prolinamide]
AC1.4: 2.446 µM

COc1cc(C)ccc1CNC(=O)[C@H]1CCCN1C(=O)[C@H]1CCCN(S(=O)(=O)N2CC(C#N)C2)C1 [Example 417, 1-(((3S)-1-((3-cyano-1-azetidinyl)sulfonyl)-3-piperidinyl)carbonyl)-N-(2-methoxy-4-methylbenzyl)-D-prolinamide]
AC1.4: 1.53 µM

C[C@@H](NC(=O)[C@H]1CCCN1C(=O)[C@@H]1CN(S(=O)(=O)N2CC(C#N)C2)CCO1)c1ccc(C(F)(F)F)cc1F [Example 73, 1-(((2S)-4-((3-cyano-1-azetidinyl)sulfonyl)-2-morpholinyl)carbonyl)-N-((1R)-1-(2-fluoro-4-(trifluoromethyl)phenyl)ethyl)-D-prolinamide]
AC1.4: 0.09745 µM

C[C@@H](NC(=O)[C@H]1CCCN1C(=O)c1cccc(S(=O)(=O)N2CC3(CC3)C2)c1)c1ccc(Cl)cc1 [Example 595, 1-((3-(5-azaspiro[2.3]hex-5-ylsulfonyl)phenyl)carbonyl)-N-((1R)-1-(4-chlorophenyl)ethyl)-D-prolinamide]
AC1.4: 3.5165 µM

N#CC1CN(S(=O)(=O)N2CCC[C@H](C(=O)N3CCC[C@@H]3C(=O)NC3CCOc4ccccc43)C2)C1 (stereo partly drawn) [Example 502, (2R)-N-(chroman-4-yl)-1-((S)-1-((3-cyanoazetidin-l-yl)sulfonyl)piperidine-3-carbonyl)pyrrolidine-2-carboxamide]
AC1.4: 2.3515 µM

O=C(N[C@@H](c1cc(F)c(Cl)cc1F)C1COC1)[C@H]1C[C@@H](O)CN1C(=O)c1ccnc(C(F)F)c1 [Example 501, (4R)-N-((R)-(4-chloro-2,5-difluorophenyl)(3-oxetanyl)methyl)-1-((2-(difluoromethyl)-4-pyridinyl)carbonyl)-4-hydroxy-D-prolinamide]
AC1.4: 2.3495 µM

CCC(NC(=O)[C@H]1CCCN1C(=O)[C@H]1CCCN(S(=O)(=O)N2CC(C#N)C2)C1)c1ccc(OC)cc1 (stereo partly drawn) [Example 625, (2R)-1-((S)-1-((3-cyanoazetidin-1-yl)sulfonyl)piperidine-3-carbonyl)-N-(1-(4-methoxyphenyl)propyl)pyrrolidine-2-carboxamide]
AC1.4: 4.01 µM

CS(=O)(=O)c1cncc(C(=O)N2CCC(C(F)(F)F)C2C(=O)N[C@@H](c2cc(F)c(C(F)(F)F)cc2F)C2CC2)c1 (stereo partly drawn) [Example 241, N-((R)-cyclopropyl(2,5-difluoro-4-(trifluoromethyl)phenyl)methyl)-1-(5-(methylsulfonyl)nicotinoyl)-3-(trifluoromethyl)pyrrolidine-2-carboxamide]
AC1.4: 0.5692 µM

COc1cccc(C(=O)N2CCC[C@@H]2C(=O)N[C@@H](c2ccc(C(F)(F)F)cc2F)C2CC2)c1 [Example 784, N-((R)-cyclopropyl(2-fluoro-4-(trifluoromethyl)phenyl)methyl)-1-(3-methoxybenzoyl)-D-prolinamide]
AC1.4: 8.852 µM

COc1ccc(Cl)cc1CNC(=O)[C@H]1CCCN1C(=O)[C@H]1CCCN(S(=O)(=O)N2CC(C#N)C2)C1 [Example 770, N-(5-chloro-2-methoxybenzyl)-1-(((3S)-1-((3-cyano-1-azetidinyl)sulfonyl)-3-piperidinyl)carbonyl)-D-prolinamide]
AC1.4: 8.1255 µM

O=C(N[C@@H](c1cc(F)c(Cl)cc1F)C1CC1)[C@H]1C[C@H]2C[C@H]2N1C(=O)c1cccc(S(=O)(=O)C2CC2)c1 [Example 92, (1R,3R,5R)-N-((R)-(4-chloro-2,5-difluorophenyl)(cyclopropyl)methyl)-2-(3-(cyclopropylsulfonyl)benzoyl)-2-azabicyclo[3.1.0]hexane-3-carboxamide]
AC1.4: 0.1388 µM

COc1ccc(S(C)(=O)=O)cc1C(=O)N1CCCC[C@@H]1C(=O)N[C@@H](c1ccc(C(F)(F)F)cc1F)C1CC1 [Example 646, (2R)-N-((R)-cyclopropyl(2-fluoro-4-(trifluoromethyl)phenyl)methyl)-1-(2-methoxy-5-(methylsulfonyl)benzoyl)-2-piperidinecarboxamide]
AC1.4: 4.377 µM

CS(=O)(=O)N1CCC[C@H](C(=O)N2[C@@H](C(=O)N[C@@H](c3cc(F)c(Cl)cc3F)C3CC3)C[C@H]3C[C@H]32)C1 [Example 277, (1R,3R,5R)-N-((R)-(4-chloro-2,5-difluorophenyl)(cyclopropyl)methyl)-2-(((3S)-1-(methylsulfonyl)-3-piperidinyl)carbonyl)-2-azabicyclo[3.1.0]hexane-3-carboxamide]
AC1.4: 0.7027 µM

CS(=O)(=O)c1cccc(C(=O)N2CCC[C@@H]2C(=O)NC(c2ccc(C(F)(F)F)cc2)C2CNC(=O)C2)c1 (stereo partly shown) [Example 482]
AC1.4: 1.945 µM

C[C@H](NC(=O)[C@H]1CCCN1C(=O)[C@H]1CCCN(S(=O)(=O)N2CC(C#N)C2)C1)c1ccc(C(F)(F)F)cc1 [Example 431, 1-(((3S)-1-((3-cyano-1-azetidinyl)sulfonyl)-3-piperidinyl)carbonyl)-N-((1S)-1-(4-(trifluoromethyl)phenyl)ethyl)-D-prolinamide]
AC1.4: 1.6305 µM
